# Target: recombinant EZH2-641F complex (EZH2 Y641F/EED/SUZ12/RbAp48/AEBP2) (Homo sapiens (Human), UniProt Q15910, Y641F)
# Test: EZH2 Histone Methyl Transferase Assay (scintillation proximity assay)
# Type: biochemical
# Conditions: 350 nM histone peptide substrate, 500 nM 3H-SAM, 3 hours room temperature
# Experimental: EZH2 Histone Methyl Transferase Assay
# The effectiveness of compounds of the present invention as inhibitors of histone methyl transferases can be readily tested by assays known to those skilled in the art. For example, in vitro histone methyl transferase assays may be conducted with a relevant purified histone methyl transferase and an appropriate synthetic substrate to determine the inhibitory activity of the compounds. Assays for inhibition of EZH2 by the instant compounds were performed in 384-well plates with reaction mixtures containing 350 nM of histone peptide substrate (ATKAAR-K(Me2)-SAPATGGVKKPHRYRPG-GK(Biotin), 500 nM S-[methyl-^3H]adenosyl-L-methionine (55-85 Ci/mmol), 50 mM Tris-HCl (pH 9.0), 50 mM NaCl, 1 mM dithiothreitol, Tween-20 at 0.01% and fatty-acid free bovine serum albumin at 0.01%, and recombinant EZH2-641F complex (EZH2 Y641F/EED/SUZ12/RbAp48/AEBP2) at 5 nM (>98% purity, BPS Bioscience) or 15 nM (50% purity, in-house). Reaction mixtures were incubated at room temperature for 3 hours, and the reactions were terminated by 0.005% poly-L-lysine solution in 20 mM Tris-HCl (pH 7.5) and 150 mM NaCl. Reaction products were captured by binding to strepavidin-conjugated imaging beads. Incorporation of radioactive methyl group into the histone peptide substrate was determined in Leadseeker (GE Healthcare) by means of scintillation proximity assay. Dose response curves were generated to determine the concentration required to inhibit 50% of methyl transferase activity (EC50). Compounds were dissolved at 10 mM in dimethylsulfoxide (DMSO) and evaluated at eleven concentrations. EC50 values were derived by non-linear regression analysis.
# Sequence of recombinant EZH2-641F complex (EZH2 Y641F/EED/SUZ12/RbAp48/AEBP2) (Q15910 whole entry Y641F): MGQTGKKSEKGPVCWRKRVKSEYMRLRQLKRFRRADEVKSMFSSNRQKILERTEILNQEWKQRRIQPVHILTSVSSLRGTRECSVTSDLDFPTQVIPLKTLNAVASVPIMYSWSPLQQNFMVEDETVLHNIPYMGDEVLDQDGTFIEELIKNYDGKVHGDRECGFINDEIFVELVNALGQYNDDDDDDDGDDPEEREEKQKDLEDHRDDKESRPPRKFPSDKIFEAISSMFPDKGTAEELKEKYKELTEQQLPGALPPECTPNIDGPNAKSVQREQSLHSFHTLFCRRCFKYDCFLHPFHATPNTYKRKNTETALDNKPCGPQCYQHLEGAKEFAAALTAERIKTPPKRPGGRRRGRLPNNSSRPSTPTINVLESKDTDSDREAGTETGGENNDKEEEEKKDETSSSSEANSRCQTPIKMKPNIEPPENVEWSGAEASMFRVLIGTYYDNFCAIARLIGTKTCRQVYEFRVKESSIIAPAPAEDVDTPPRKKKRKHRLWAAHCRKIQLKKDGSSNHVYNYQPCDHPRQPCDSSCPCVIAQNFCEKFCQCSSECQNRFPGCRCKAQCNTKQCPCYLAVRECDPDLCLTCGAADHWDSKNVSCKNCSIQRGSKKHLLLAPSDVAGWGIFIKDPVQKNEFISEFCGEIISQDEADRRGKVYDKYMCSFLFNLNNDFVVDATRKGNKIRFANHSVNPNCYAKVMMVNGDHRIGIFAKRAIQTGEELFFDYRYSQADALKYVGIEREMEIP
# Sequence of recombinant EZH2-641F complex (EZH2 Y641F/EED/SUZ12/RbAp48/AEBP2) (O75530 whole entry partner): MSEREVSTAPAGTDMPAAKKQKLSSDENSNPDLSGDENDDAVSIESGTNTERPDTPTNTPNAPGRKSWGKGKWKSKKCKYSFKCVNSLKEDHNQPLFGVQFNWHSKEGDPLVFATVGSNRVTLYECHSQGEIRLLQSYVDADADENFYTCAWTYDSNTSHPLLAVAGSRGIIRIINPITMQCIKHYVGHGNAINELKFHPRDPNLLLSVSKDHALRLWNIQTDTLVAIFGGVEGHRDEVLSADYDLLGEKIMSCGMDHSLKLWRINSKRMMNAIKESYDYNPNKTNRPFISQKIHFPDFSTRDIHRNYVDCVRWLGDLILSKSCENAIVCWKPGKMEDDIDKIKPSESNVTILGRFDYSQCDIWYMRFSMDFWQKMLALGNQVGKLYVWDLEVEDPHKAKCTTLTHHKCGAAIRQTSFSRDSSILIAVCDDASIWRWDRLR
# Sequence of recombinant EZH2-641F complex (EZH2 Y641F/EED/SUZ12/RbAp48/AEBP2) (Q15022 whole entry partner): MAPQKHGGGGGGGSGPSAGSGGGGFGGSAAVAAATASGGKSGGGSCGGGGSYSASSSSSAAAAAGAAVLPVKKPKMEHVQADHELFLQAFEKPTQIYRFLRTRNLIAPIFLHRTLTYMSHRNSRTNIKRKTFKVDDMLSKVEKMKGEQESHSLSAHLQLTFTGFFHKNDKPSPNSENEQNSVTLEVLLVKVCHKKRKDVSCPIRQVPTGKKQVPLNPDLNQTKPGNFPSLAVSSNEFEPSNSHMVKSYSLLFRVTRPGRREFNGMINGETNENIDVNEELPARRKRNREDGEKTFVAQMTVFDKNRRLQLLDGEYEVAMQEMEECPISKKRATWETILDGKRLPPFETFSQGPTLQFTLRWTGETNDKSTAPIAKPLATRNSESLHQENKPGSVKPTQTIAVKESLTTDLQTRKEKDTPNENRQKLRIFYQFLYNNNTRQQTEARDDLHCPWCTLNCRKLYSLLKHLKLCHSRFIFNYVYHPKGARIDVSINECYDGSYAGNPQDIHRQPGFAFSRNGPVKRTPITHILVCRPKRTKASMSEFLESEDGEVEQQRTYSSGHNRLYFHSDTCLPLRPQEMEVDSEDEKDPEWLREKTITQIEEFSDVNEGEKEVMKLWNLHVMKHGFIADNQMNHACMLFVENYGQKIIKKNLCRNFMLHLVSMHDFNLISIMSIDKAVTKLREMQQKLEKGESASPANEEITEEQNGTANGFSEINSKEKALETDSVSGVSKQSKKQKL
# Sequence of recombinant EZH2-641F complex (EZH2 Y641F/EED/SUZ12/RbAp48/AEBP2) (Q09028 whole entry partner): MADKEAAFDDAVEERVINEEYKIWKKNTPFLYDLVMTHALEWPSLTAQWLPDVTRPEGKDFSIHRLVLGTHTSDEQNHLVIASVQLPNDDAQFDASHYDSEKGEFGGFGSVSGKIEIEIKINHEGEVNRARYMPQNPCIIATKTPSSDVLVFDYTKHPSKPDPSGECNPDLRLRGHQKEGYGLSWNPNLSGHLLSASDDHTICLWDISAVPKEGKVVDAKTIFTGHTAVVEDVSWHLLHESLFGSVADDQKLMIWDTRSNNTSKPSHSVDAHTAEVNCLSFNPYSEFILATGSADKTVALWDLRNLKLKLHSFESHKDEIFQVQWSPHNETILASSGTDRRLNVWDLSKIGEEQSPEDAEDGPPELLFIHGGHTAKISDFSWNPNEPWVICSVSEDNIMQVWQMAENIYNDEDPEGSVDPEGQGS
# Sequence of recombinant EZH2-641F complex (EZH2 Y641F/EED/SUZ12/RbAp48/AEBP2) (Q6ZN18 whole entry partner): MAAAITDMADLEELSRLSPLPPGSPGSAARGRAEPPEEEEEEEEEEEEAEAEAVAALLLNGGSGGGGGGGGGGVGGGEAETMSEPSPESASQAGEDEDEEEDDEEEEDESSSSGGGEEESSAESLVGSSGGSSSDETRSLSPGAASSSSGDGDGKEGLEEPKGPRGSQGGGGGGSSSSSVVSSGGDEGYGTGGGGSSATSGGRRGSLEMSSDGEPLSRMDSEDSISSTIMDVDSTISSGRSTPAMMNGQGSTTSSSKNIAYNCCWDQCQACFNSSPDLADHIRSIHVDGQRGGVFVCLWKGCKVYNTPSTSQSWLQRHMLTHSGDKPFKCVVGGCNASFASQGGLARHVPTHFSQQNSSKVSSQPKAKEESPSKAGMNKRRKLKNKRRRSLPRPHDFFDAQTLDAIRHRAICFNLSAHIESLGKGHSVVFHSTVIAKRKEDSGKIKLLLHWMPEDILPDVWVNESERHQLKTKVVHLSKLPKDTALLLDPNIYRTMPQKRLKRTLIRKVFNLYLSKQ
row,IC50,SMILES
1,> 1 µM,"Cc1cc(C)c(CNC(=O)c2cc(Br)c3c(c2)CC(C(C)C)O3)c(=O)[nH]1 (stereo not drawn) [Example 79, 7-Bromo-N-((4,6-dimethyl-2-oxo-1,2-dihydropyridin-3-yl)methyl)-2-isopropyl-2,3-dihydrobenzofuran-5-carboxamide]"
2,> 1 µM,"Cc1cc(C)c(CNC(=O)c2cc3c(c(-c4ccc(N5CCOCC5)nc4)c2)OCC3)c(=O)[nH]1 [Example 37, N-((4,6-Dimethyl-2-oxo-1,2-dihydropyridin-3-yl)methyl)-7-(6-morpholinopyridin-3-yl)-2,3-dihydrobenzofuran-5-carboxamide]"
3,> 1 µM,"Cc1cc(C)c(CNC(=O)c2cc(C)c3c(c2)CC(C)(C)O3)c(=O)[nH]1 [Example 6, N-((4,6-Dimethyl-2-oxo-1,2-dihydropyridin-3-yl)methyl)-2,2,7-trimethyl-2,3-dihydrobenzofuran-5-carboxamide]"
4,> 1 µM,"Cc1cc(C)c(CNC(=O)c2cc(C)c3c(c2C)CC(C)(C)O3)c(=O)[nH]1 [Example 9, N-((4,6-Dimethyl-2-oxo-1,2-dihydropyridin-3-yl)methyl)-2,2,4,7-tetramethyl-2,3-dihydrobenzofuran-5-carboxamide]"
5,> 1 µM,"Cc1cc(C)c(CNC(=O)c2ccc3c(c2)CCC(C)(C)O3)c(=O)[nH]1 [Example 41, N-((4,6-Dimethyl-2-oxo-1,2-dihydropyridin-3-yl)methyl)-2,2-dimethylchroman-6-carboxamide]"
6,> 1 µM,"Cc1cc(C)c(CNC(=O)c2cc(Br)c3c(c2)CCC(C)(C)O3)c(=O)[nH]1 [Example 42, 8-Bromo-N-((4,6-dimethyl-2-oxo-1,2-dihydropyridin-3-yl)methyl)-2,2-dimethylchroman-6-carboxamide]"
7,> 1 µM,"Cc1cc(C)c(CNC(=O)c2cc(/C=C/c3ccccc3)c3c(c2)CC(C)(C)O3)c(=O)[nH]1 [Example 15, (E)-N-((4,6-Dimethyl-2-oxo-1,2-dihydropyridin-3-yl)methyl)-2,2-dimethyl-7-styryl-2,3-dihydrobenzofuran-5-carboxamide]"
8,> 1 µM,"C=CC1(C)Cc2cc(C(=O)NCc3c(C)cc(C)[nH]c3=O)cc(Br)c2O1 (stereo not drawn) [Example 57, 7-Bromo-N-((4,6-dimethyl-2-oxo-1,2-dihydropyridin-3-yl)methyl)-2-methyl-2-vinyl-2,3-dihydrobenzofuran-5-carboxamide]"
9,> 1 µM,"COc1ccc(-c2cc(C(=O)NCc3c(C)cc(C)[nH]c3=O)cc3c2OCC32CCCC2)cn1 [Example 76, N-((4,6-Dimethyl-2-oxo-1,2-dihydropyridin-3-yl)methyl)-7-(6-methoxypyridin-3-yl)-2H-spiro[benzofuran-3,1′-cyclopentane]-5-carboxamide]"
10,< 0.5 µM,"Cc1cc(C)c(CNC(=O)c2cc3c(c(-c4cnc(N5CCNCC5)nc4)c2)OC(C)(C)C3)c(=O)[nH]1 [Example 20, N-((4,6-Dimethyl-2-oxo-1,2-dihydropyridin-3-yl)methyl)-2,2-dimethyl-7-(2-(piperazin-1-yl)pyrimidin-5-yl)-2,3-dihydrobenzofuran-5-carboxamide]"
11,> 1 µM,"COc1ccc(-c2cc(C(=O)NCc3c(C)cc(C)[nH]c3=O)cc3c2OCC3C)cn1 (stereo not drawn) [Example 30, N-((4,6-Dimethyl-2-oxo-1,2-dihydropyridin-3-yl)methyl)-7-(6-methoxypyridin-3-yl)-3-methyl-2,3-dihydrobenzofuran-5-carboxamide]"
12,> 1 µM,"Cc1cc(C)c(CNC(=O)c2cc(Br)c3c(c2)CC(C)CCO3)c(=O)[nH]1 (stereo not drawn) [Example 45, 9-Bromo-N-((4,6-dimethyl-2-oxo-1,2-dihydropyridin-3-yl)methyl)-4-methyl-2,3,4,5-tetrahydrobenzo[b]oxepine-7-carboxamide]"
13,> 1 µM,"C=CC1COc2cc(C(=O)NCc3c(C)cc(C)[nH]c3=O)cc(Br)c2O1 (stereo not drawn) [Example 90, 8-Bromo-N-((4,6-dimethyl-2-oxo-1,2-dihydropyridin-3-yl)methyl)-2-vinyl-2,3-dihydrobenzo[b][1,4]dioxine-6-carboxamide]"
14,> 1 µM,"CCCc1cc(C)[nH]c(=O)c1CNC(=O)c1cc(Br)c2c(c1)CC(C)(C)O2 [Example 24, 7-Bromo-2,2-dimethyl-N-((6-methyl-2-oxo-4-propyl-1,2-dihydropyridin-3-yl)methyl)-2,3-dihydrobenzofuran-5-carboxamide]"
15,> 1 µM,"Cc1cc(C)c(CNC(=O)c2cc(-c3ccc(CN4CCOCC4)cc3)c3c(c2)C(C)CO3)c(=O)[nH]1 (stereo not drawn) [Example 28, N-((4,6-Dimethyl-2-oxo-1,2-dihydropyridin-3-yl)methyl)-3-methyl-7-(4-(morpholinomethyl)phenyl)-2,3-dihydrobenzofuran-5-carboxamide]"
16,0.5 to 1 µM,"Cc1cc(C)c(CNC(=O)c2cc(-c3ccc(CN4CCCCC4)cc3)c3c(c2)[C@@H]2CCC[C@]2(C)O3)c(=O)[nH]1 (racemic) [Example 67, rac-(3aS,8bS)—N-((4,6-Dimethyl-2-oxo-1,2-dihydropyridin-3-yl)methyl)-3a-methyl-5-(4-(piperidin-1-ylmethyl)phenyl)-2,3,3a,8b-tetrahydro-1H-cyclopenta[b]benzofuran-7-carboxamide]"
17,> 1 µM,"Cc1cc(C)c(CNC(=O)c2cc(Br)c3c(c2)CCC(C)CO3)c(=O)[nH]1 (stereo not drawn) [Example 53, 9-Bromo-N-((4,6-dimethyl-2-oxo-1,2-dihydropyridin-3-yl)methyl)-3-methyl-2,3,4,5-tetrahydrobenzo[b]oxepine-7-carboxamide]"
18,< 0.5 µM,"Cc1cc(C)c(CNC(=O)c2cc3c(c(-c4ccc(N5CCNCC5)nc4)c2)OC2(CCCC2)C3)c(=O)[nH]1 [Example 72, N-((4,6-Dimethyl-2-oxo-1,2-dihydropyridin-3-yl)methyl)-7-(6-(piperazin-1-yl)pyridin-3-yl)-3H-spiro[benzofuran-2,1′-cyclopentane]-5-carboxamide]"
19,< 0.5 µM,"Cc1cc(C)c(CNC(=O)c2cc3c(c(Br)c2C)O[C@@]2(C)CCC[C@@H]32)c(=O)[nH]1 (racemic) [Example 69, rac-(3aS,8bS)-5-Bromo-N-((4,6-dimethyl-2-oxo-1,2-dihydropyridin-3-yl)methyl)-3a,6-dimethyl-2,3,3a,8b-tetrahydro-1H-cyclopenta[b]benzofuran-7-carboxamide]"
20,> 1 µM,"Cc1cc(C)c(CNC(=O)c2cc3c(c(-c4ccc(C(=O)N5CCN(C)CC5)cc4)c2)OC(C)(C)C3)c(=O)[nH]1 [Example 16, N-((4,6-Dimethyl-2-oxo-1,2-dihydropyridin-3-yl)methyl)-2,2-dimethyl-7-(4-(4-methylpiperazine-1-carbonyl)phenyl)-2,3-dihydrobenzofuran-5-carboxamide]"
21,< 0.5 µM,"Cc1cc(C)c(CNC(=O)c2cc(-c3ccc(N4CCNCC4)nc3)c3c(c2)[C@@H]2CCC[C@]2(C)O3)c(=O)[nH]1 (racemic) [Example 65, rac-(3aS,8bS)—N-((4,6-Dimethyl-2-oxo-1,2-dihydropyridin-3-yl)methyl)-3a-methyl-5-(6-(piperazin-1-yl)pyridin-3-yl)-2,3,3a,8b-tetrahydro-1H-cyclopenta[b]benzofuran-7-carboxamide]"
22,> 1 µM,"COc1ccc(-c2cc(C(=O)NCc3c(C)cc(C)[nH]c3=O)cc3c2OCCC(C)C3)cn1 (stereo not drawn) [Example 46, N-((4,6-Dimethyl-2-oxo-1,2-dihydropyridin-3-yl)methyl)-9-(6-methoxypyridin-3-yl)-4-methyl-2,3,4,5-tetrahydrobenzo[b]oxepine-7-carboxamide]"
23,> 1 µM,"Cc1cc(C)c(CNC(=O)c2cc(Br)c3c(c2)CC(C)O3)c(=O)[nH]1 (stereo not drawn) [Example 31, 7-Bromo-N-((4,6-dimethyl-2-oxo-1,2-dihydropyridin-3-yl)methyl)-2-methyl-2,3-dihydrobenzofuran-5-carboxamide]"
24,> 1 µM,"Cc1cc(C)c(CNC(=O)c2cc(Cc3ccccc3)c3c(c2)CC(C)(C)O3)c(=O)[nH]1 [Example 21, 7-Benzyl-N-((4,6-dimethyl-2-oxo-1,2-dihydropyridin-3-yl)methyl)-2,2-dimethyl-2,3-dihydrobenzofuran-5-carboxamide]"
25,> 1 µM,"Cc1cc(C)c(CNC(=O)c2cc3c(c(-c4cnc5ccccc5c4)c2)OC(C)(C)C3)c(=O)[nH]1 [Example 13, N-((4,6-Dimethyl-2-oxo-1,2-dihydropyridin-3-yl)methyl)-2,2-dimethyl-7-(quinolin-3-yl)-2,3-dihydrobenzofuran-5-carboxamide]"
26,> 1 µM,"Cc1cc(C)c(CNC(=O)c2ccc3c(c2)CCCC(C)O3)c(=O)[nH]1 (stereo not drawn) [Example 48, N-((4,6-Dimethyl-2-oxo-1,2-dihydropyridin-3-yl)methyl)-2-methyl-2,3,4,5-tetrahydrobenzo[b]oxepine-7-carboxamide]"

row,SMILES,IC50
1,"CC1=C(C)Cc2cc(C(=O)NCc3c(C)cc(C)[nH]c3=O)cc(Br)c2OC1 [Example 81, 9-Bromo-N-((4,6-dimethyl-2-oxo-1,2-dihydropyridin-3-yl)methyl)-3,4-dimethyl-2,5-dihydrobenzo[b]oxepine-7-carboxamide]",> 1 µM
